In article PMC9841524, “Structure-Based Rational Design of Small α-Helical Peptides with Broad-Spectrum Activity against Multidrug-Resistant Pathogens” (Journal of Medicinal Chemistry, 2022):

tested on: S. aureus (ATCC 29213); test: MIC, standard microtiter dilution (CLSI); format: cell-based; conditions: broth microdilution (CLSI), CAMHB, 10^6 CFU/mL, 37 °C, 24 h; highest MIC of three independent experiments in triplicate
Summary of the method: (§1)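 In this CLSI-recommended assay, peptides were serially diluted twofold and combined with bacteria at 10^6 CFU/mL in cation-adjusted Mueller Hinton Broth.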

Substance | MIC, S. aureus (ATCC 29213) [µg/mL]
Ac-KWAKKWAKWWKK-NH2 [6d] | 50
Ac-KWIKKWIKWWKK-NH2 [7d] | 6.2
Ac-KWLKKWLKWWKK-NH2 [8d] | 3.1
Ac-RWARRWARWWRR-NH2 [6c] | 50

same assay, conditions: value in parentheses (μM); broth microdilution (CLSI), CAMHB, 37 °C, 24 h

Substance | MIC, S. aureus (ATCC 29213) [µM]
Ac-KWAKKWAKWWKK-NH2 [6d] | 29.15
Ac-KWIKKWIKWWKK-NH2 [7d] | 3.45
Ac-KWLKKWLKWWKK-NH2 [8d] | 1.72
Ac-RWARRWARWWRR-NH2 [6c] | 26.55

tested on: E. coli (ATCC 25922); test: not given; conditions: broth microdilution (CLSI), CAMHB, 10^6 CFU/mL, 37 °C, 24 h; highest MIC of three independent experiments in triplicate
Summary of the method: as §1

Substance | MIC, E. coli (ATCC 25922) [µg/mL]
Ac-KWAKKWAKWWKK-NH2 [6d] | 100
Ac-KWIKKWIKWWKK-NH2 [7d] | 12.5
Ac-KWLKKWLKWWKK-NH2 [8d] | 6.2
Ac-RWARRWARWWRR-NH2 [6c] | 100

same assay, conditions: value in parentheses (μM); broth microdilution (CLSI), CAMHB, 37 °C, 24 h

Substance | MIC, E. coli (ATCC 25922) [µM]
Ac-KWAKKWAKWWKK-NH2 [6d] | 58.30
Ac-KWIKKWIKWWKK-NH2 [7d] | 6.95
Ac-KWLKKWLKWWKK-NH2 [8d] | 3.45
Ac-RWARRWARWWRR-NH2 [6c] | 53.10

tested on: MRSA (ATCC BAA-1556); test: not given; conditions: broth microdilution (CLSI), CAMHB, 10^6 CFU/mL, 37 °C, 24 h; highest MIC of three independent experiments in triplicate
Summary of the method: as §1

Substance | MIC, MRSA (ATCC BAA-1556) [µg/mL]
Ac-KWAKKWAKWWKK-NH2 [6d] | 100
Ac-KWIKKWIKWWKK-NH2 [7d] | 6.2
Ac-KWLKKWLKWWKK-NH2 [8d] | 6.2
Ac-RWARRWARWWRR-NH2 [6c] | 50

same assay, conditions: value in parentheses (μM); broth microdilution (CLSI), CAMHB, 37 °C, 24 h

Substance | MIC, MRSA (ATCC BAA-1556) [µM]
Ac-KWAKKWAKWWKK-NH2 [6d] | 58.30
Ac-KWIKKWIKWWKK-NH2 [7d] | 3.45
Ac-KWLKKWLKWWKK-NH2 [8d] | 3.45
Ac-RWARRWARWWRR-NH2 [6c] | 26.55

tested on: P. aeruginosa (ATCC 27883); test: MIC, standard microtiter dilution (CLSI); format: cell-based, Pseudomonas aeruginosa; conditions: broth microdilution (CLSI), CAMHB, 10^6 CFU/mL, 37 °C, 24 h; highest MIC of three independent experiments in triplicate
Summary of the method: as §1

Substance | MIC, P. aeruginosa (ATCC 27883) [µg/mL]
Ac-KWAKKWAKWWKK-NH2 [6d] | 100
Ac-KWIKKWIKWWKK-NH2 [7d] | 12.5
Ac-KWLKKWLKWWKK-NH2 [8d] | 6.2
Ac-RWARRWARWWRR-NH2 [6c] | 100

same assay, conditions: value in parentheses (μM); broth microdilution (CLSI), CAMHB, 37 °C, 24 h

Substance | MIC, P. aeruginosa (ATCC 27883) [µM]
Ac-KWAKKWAKWWKK-NH2 [6d] | 58.30
Ac-KWIKKWIKWWKK-NH2 [7d] | 6.95
Ac-KWLKKWLKWWKK-NH2 [8d] | 3.45
Ac-RWARRWARWWRR-NH2 [6c] | 53.10

tested on: K. pneumoniae (ATCCBAA-1705); test: MIC, standard microtiter dilution (CLSI); format: cell-based, Klebsiella pneumoniae; conditions: broth microdilution (CLSI), CAMHB, 10^6 CFU/mL, 37 °C, 24 h; highest MIC of three independent experiments in triplicate
Summary of the method: as §1

Substance | MIC, K. pneumoniae (ATCCBAA-1705) [µg/mL]
Ac-KWAKKWAKWWKK-NH2 [6d] | 100
Ac-KWIKKWIKWWKK-NH2 [7d] | 25
Ac-KWLKKWLKWWKK-NH2 [8d] | 12.5
Ac-RWARRWARWWRR-NH2 [6c] | > 100

same assay, conditions: value in parentheses (μM); broth microdilution (CLSI), CAMHB, 37 °C, 24 h

Substance | MIC, K. pneumoniae (ATCCBAA-1705) [µM]
Ac-KWAKKWAKWWKK-NH2 [6d] | 58.30
Ac-KWIKKWIKWWKK-NH2 [7d] | 13.89
Ac-KWLKKWLKWWKK-NH2 [8d] | 6.95
Ac-RWARRWARWWRR-NH2 [6c] | > 53.10

tested on: human red blood cells (hRBCs); test: Hemolytic assay; format: cell-based; conditions: hRBC suspension 4% in PBS, 2 h, 37 °C, hemoglobin release at 567 nm; 1% Triton X-100 = 100%
Summary of the method: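 Percent hemolysis uses PBS as 0% and 1% Triton X-100 as 100% references, from supernatant absorbance at 567 nm. Red cells (4% in PBS, equal volume) exposed 2 h at 37 °C without agitation to 2-fold serially diluted peptide.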

Substance | HC50 (concentration at which 50% hemolysis was observed) [µg/mL]
Ac-KWAKKWAKWWKK-NH2 [6d] | 345
Ac-KWIKKWIKWWKK-NH2 [7d] | 160
Ac-KWLKKWLKWWKK-NH2 [8d] | 145
Ac-RWARRWARWWRR-NH2 [6c] | 110

same assay, conditions: value in parentheses (μM); hRBC 4% in PBS, 2 h, 37 °C, 567 nm

Substance | HC50 (concentration at which 50% hemolysis was observed) [µM]
Ac-KWAKKWAKWWKK-NH2 [6d] | 201.15
Ac-KWIKKWIKWWKK-NH2 [7d] | 88.92
Ac-KWLKKWLKWWKK-NH2 [8d] | 80.59
Ac-RWARRWARWWRR-NH2 [6c] | 58.41

tested on: not listed separately; test: Relative hydrophobicity as RP-HPLC retention time; format: physicochemical; conditions: chromatographic, Phenomenex Luna C18 4 μm 150 × 4.6 mm, linear AB gradient 1% acetonitrile/min, 0.3 mL/min, A water 0.1% TFA, B acetonitrile 0.1% TFA, 25 °C
Protocol: The purity analysis of the peptides was conducted on a RP-HPLC system (Shimadzu; LC-20ADXR) by using a Phenomenex (Luna) analytical C18 column (4 μm, 150 × 4.6 mm). The mass of the purified peptides was determined in the positive-ion mode using Q-TOF LC/MS (Compass Hystar 4.1, Bruker, USA). The purity (>95%) and mass data of all the synthesized peptides are provided in the Supporting Information.
8. Comparative Hydrophobicity analysis
The purity of all synthesized peptides was determined using reverse phase analytical HPLC
(Shimadzu; LC-20ADXR). Below mentioned are the conditions used to conduct the purity
Column: Phenomenex (Luna), 4 um, C18, 150 × 4.6 mm
Mobile Phase: Buffer A-Water containing 0.1% TFA,
Buffer B-Acetonitrile containing 0.1% TFA
Figure S52. HPLC chromatogram of 6a.
(1 picture or pasted object on this page, not shown here)

Substance | tR, RP-HPLC retention time (measure of overall hydrophobicity) [min]
Ac-KWAKKWAKWWKK-NH2 [6d] | 32.81
Ac-KWIKKWIKWWKK-NH2 [7d] | 38.75
Ac-KWLKKWLKWWKK-NH2 [8d] | 39.25
Ac-RWARRWARWWRR-NH2 [6c] | 34.61

tested on: not listed separately; test: CD spectroscopy, helicity; format: physicochemical; parameters: key to Δ[θ]222 induced by TFE / Δ[θ]222 induced by Liposomes: mean residue molar ellipticity, mdeg cm2/(dmol × res); conditions: CD at 222 nm, 25 °C, aqueous buffer containing 50% TFE;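 as to % of helicity induced by Liposomes: share of the total helicity with liposomes gained over the same peptide in PBS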;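 as to % of helicity induced by TFE: share of the total helicity in TFE gained over the same peptide in PBS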
Protocol: The CD spectra of peptides were recorded using a Jasco J-1500 CD spectrophotometer (Jasco, Easton, MD) at 25 °C with a 1 mm path length cell. Wavelengths from 190 to 260 nm were scanned with 1.0 nm step resolution, 100 nm/min speed, 0.4 s response time, and 1 nm bandwidth. CD spectra of the peptides were collected and averaged over three scans in 10 mM sodium phosphate buffer (pH 7.2), helix-inducing solvent 50% TFE (v/v), and bacterial mimic liposomes (75 μM lipid). Spectra were corrected by subtracting a baseline spectrum containing only buffer or 50% TFE or liposomes. The mean residue molar ellipticity was calculated using the formula [drawing 3] where Ab222 is the absorbance observed at 222 nm, MRW is the mean residue molecular weight, C is the concentration in mg/mL, and L is the path length.
Table S1. RP-HPLC retention times and CD spectroscopy analysis of the selected peptides Peptide tR (min)a [θ]222b Δ[θ]222 induced by % of helicity inducedc by PBS TFE Liposomes TFE Liposomes TFE Liposomes […]
atR (min) denotes the retention time at 25°C by RP-HPLC. bThe mean residue molar ellipticity [θ] 222 (mdeg cm2/(dmol × res)) at 222 nm was measured at 25 °C in phosphate buffer saline (PBS, pH 7.0), in aqueous buﬀer containing 50% TFE (TFE), or in presence of bacterial membrane mimicking liposomes (peptide:lipid […]
c% helix induced is the increase in the molar ellipticity at 222 nm (in percentage) of a peptide in the presence of TFE or liposomes.

Substance | [θ]222 mean residue molar ellipticity, TFE
Ac-KWAKKWAKWWKK-NH2 [6d] | -18432 mdeg cm2/(dmol × res)
Ac-KWIKKWIKWWKK-NH2 [7d] | -11272 mdeg cm2/(dmol × res)
Ac-KWLKKWLKWWKK-NH2 [8d] | -16759 mdeg cm2/(dmol × res)
Ac-RWARRWARWWRR-NH2 [6c] | -18280 mdeg cm2/(dmol × res)

same assay, conditions: CD at 222 nm, 25 °C, bacterial membrane mimicking liposomes, peptide:lipid molar ratio 1:1.05

Substance | [θ]222 mean residue molar ellipticity, Liposomes
Ac-KWAKKWAKWWKK-NH2 [6d] | -24274 mdeg cm2/(dmol × res)
Ac-KWIKKWIKWWKK-NH2 [7d] | -19755 mdeg cm2/(dmol × res)
Ac-KWLKKWLKWWKK-NH2 [8d] | -24786 mdeg cm2/(dmol × res)
Ac-RWARRWARWWRR-NH2 [6c] | -20250 mdeg cm2/(dmol × res)

same assay, conditions: CD at 222 nm, 25 °C, phosphate buffer saline pH 7.0

Substance | [θ]222 mean residue molar ellipticity, PBS
Ac-KWAKKWAKWWKK-NH2 [6d] | -13464 mdeg cm2/(dmol × res)
Ac-KWIKKWIKWWKK-NH2 [7d] | -3826 mdeg cm2/(dmol × res)
Ac-KWLKKWLKWWKK-NH2 [8d] | -10222 mdeg cm2/(dmol × res)
Ac-RWARRWARWWRR-NH2 [6c] | -10947 mdeg cm2/(dmol × res)

same assay, conditions: difference to PBS; 50% TFE

Substance | Δ[θ]222 induced by TFE
Ac-KWAKKWAKWWKK-NH2 [6d] | -4968
Ac-KWIKKWIKWWKK-NH2 [7d] | -7446
Ac-KWLKKWLKWWKK-NH2 [8d] | -6537
Ac-RWARRWARWWRR-NH2 [6c] | -7332

same assay, conditions: difference to PBS; bacterial membrane mimicking liposomes

Substance | Δ[θ]222 induced by Liposomes
Ac-KWAKKWAKWWKK-NH2 [6d] | -10810
Ac-KWIKKWIKWWKK-NH2 [7d] | -15929
Ac-KWLKKWLKWWKK-NH2 [8d] | -14564
Ac-RWARRWARWWRR-NH2 [6c] | -9303

same assay, conditions: increase in molar ellipticity at 222 nm in the presence of 50% TFE

Substance | % of helicity induced by TFE [%]
Ac-KWAKKWAKWWKK-NH2 [6d] | 26.95
Ac-KWIKKWIKWWKK-NH2 [7d] | 66.05
Ac-KWLKKWLKWWKK-NH2 [8d] | 39.00
Ac-RWARRWARWWRR-NH2 [6c] | 40.11

same assay, conditions: increase in molar ellipticity at 222 nm in the presence of liposomes

Substance | % of helicity induced by Liposomes [%]
Ac-KWAKKWAKWWKK-NH2 [6d] | 44.53
Ac-KWIKKWIKWWKK-NH2 [7d] | 80.63
Ac-KWLKKWLKWWKK-NH2 [8d] | 58.75
Ac-RWARRWARWWRR-NH2 [6c] | 45.93
